Reference: patent publication US4508727A, “Antihypertensive 2-oxo-imidazolidine derivatives” (Tanabe Seiyaku Co., Ltd., priority 1982, dated 1985)

Assays:
[1] = target: T1, angiotensin-converting enzyme (ACE) isolated from pig's renal cortex (Sus scrofa, UniProt F1RRW5); assay: ACE-inhibitory activity in vitro; assay type: biochemical; conditions: substrate hippuryl-histidyl-leucine, 37° C., 20 minutes
T1 construct: isolated from pig's renal cortex; from tissue; host or cells: pig renal cortex
T1 sequence (F1RRW5 34-1309): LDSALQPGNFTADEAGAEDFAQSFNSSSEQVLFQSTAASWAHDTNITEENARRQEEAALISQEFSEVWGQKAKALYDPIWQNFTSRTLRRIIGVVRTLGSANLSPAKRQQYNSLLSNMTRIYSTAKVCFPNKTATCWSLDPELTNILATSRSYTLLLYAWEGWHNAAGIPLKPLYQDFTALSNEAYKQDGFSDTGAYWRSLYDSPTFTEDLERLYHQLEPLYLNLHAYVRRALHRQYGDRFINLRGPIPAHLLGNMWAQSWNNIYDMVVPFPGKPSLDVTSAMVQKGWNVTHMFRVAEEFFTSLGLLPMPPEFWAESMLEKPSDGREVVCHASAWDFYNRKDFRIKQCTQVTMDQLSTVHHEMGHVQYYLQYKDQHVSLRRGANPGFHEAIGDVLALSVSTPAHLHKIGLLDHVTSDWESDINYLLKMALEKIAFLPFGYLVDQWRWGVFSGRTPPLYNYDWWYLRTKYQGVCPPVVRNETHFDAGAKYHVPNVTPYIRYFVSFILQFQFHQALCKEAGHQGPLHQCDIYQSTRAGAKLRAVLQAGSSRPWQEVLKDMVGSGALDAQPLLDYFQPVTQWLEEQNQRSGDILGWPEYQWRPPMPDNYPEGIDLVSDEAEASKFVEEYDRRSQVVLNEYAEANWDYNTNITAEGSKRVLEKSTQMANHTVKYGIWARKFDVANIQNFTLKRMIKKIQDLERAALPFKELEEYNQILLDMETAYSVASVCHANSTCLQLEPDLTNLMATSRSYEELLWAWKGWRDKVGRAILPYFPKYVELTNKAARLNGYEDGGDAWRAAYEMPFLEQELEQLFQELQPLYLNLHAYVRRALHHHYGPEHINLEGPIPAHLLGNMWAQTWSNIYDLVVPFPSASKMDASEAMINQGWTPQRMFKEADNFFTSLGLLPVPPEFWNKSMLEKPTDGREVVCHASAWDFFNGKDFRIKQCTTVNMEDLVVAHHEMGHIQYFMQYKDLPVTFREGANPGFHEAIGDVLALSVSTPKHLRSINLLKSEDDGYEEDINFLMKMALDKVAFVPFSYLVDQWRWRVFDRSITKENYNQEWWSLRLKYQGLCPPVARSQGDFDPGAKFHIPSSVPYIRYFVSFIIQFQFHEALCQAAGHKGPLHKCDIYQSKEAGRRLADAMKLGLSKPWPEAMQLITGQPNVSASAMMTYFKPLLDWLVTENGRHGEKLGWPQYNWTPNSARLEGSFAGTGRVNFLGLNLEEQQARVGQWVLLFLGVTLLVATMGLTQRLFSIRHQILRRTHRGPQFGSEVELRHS
Protocol: 50 μl of a solution containing 0.01 mole/liter of hippuryl-histidyl-leucine (substrate) and 0-100 μl of a test compound solution were added to 300 μl of a 0.2M tris-hydrochloric acid buffer solution containing 0.2 mole/liter of sodium chloride. The total volume of said mixture was adjusted to 450 μl with water. Then, 50 μl of angiotensin-converting enzyme (ACE) isolated from pig's renal cortex were added to the mixture, and the mixture was allowed to stand at 37° C. for 20 minutes. The amount of histidyl-leucine produced from the substrate by the action of ACE was assayed microbiologically by the use of Leuconostoc mesenteroides P-60, and the ACE-inhibitory activity of the test compound was estimated therefrom.

[2] = system: mice; assay: toxicity, intravenous administration to mice; assay type: in vivo; conditions: 1000 mg/kg intravenously, 7 days after the administration
Protocol: Further, the toxicity of the compound (I) of the invention is remarkably low. For example, when (4S)-1-benzyl-3-{(2 S)-2-[N-((1S)-1-carboxy-3-phenylpropyl)amino]propionyl}-2-oxo-imidazolidine-4-carboxylic acid and (4S)-1-methyl-3-{(2S)-2-[N-((1S)-1-carboxy-n-nonyl)amino]propionyl}-2-oxo- imidazolidine-4-carboxylic acid were administered intravenously to mice at the dose of 1000 mg/kg, no mice died 7 days after the administration. Thus, angiotensin-dependent hypertension in mammals can be alleviated by administration of the compound (I) of the present invention or a pharmaceutically acceptable salt thereof.

[3] = system: ACE; assay: ACE-inhibitory activity in vivo, pressor response to angiotensin I, intravenous, cats; design: species or system cat; conditions: normotensive cats, 10 γ/kg intravenously, angiotensin I 600 ng/kg
Protocol: (§1) Normotensive rats and normotensive cats were anesthetized with urethane (1.2 g/kg, s.c.), and angiotensin I (rat: 300 ng/kg, cat: 600 ng/kg) was injected into the jugular vein of the rats and the femoral vein of the cats. The pressor response to angiotensin I was measured with a pressure transducer connected to the carotid artery. Then, a test compound was injected intravenously thereto at a dose of 10 γ/kg, and angiotensin I (rat: 300 ng/kg, cat: 600 ng/kg) was further injected intravenously at intervals. The ACE-inhibitory activity of the test compound was estimated by dose-response curve measured from the pressor responses to angiotensin I which were obtained before and after intravenous injection of the test compound.

[4] = system: ACE; assay: ACE-inhibitory activity in vivo, pressor response to angiotensin I, intravenous, rats; design: species or system rat; conditions: normotensive rats, 10 γ/kg intravenously, angiotensin I 300 ng/kg
Protocol: as §1

[5] = system: ACE; assay: ACE-inhibitory activity in vivo, pressor response to angiotensin I, oral, rats; design: species or system rat; conditions: for ACE-inhibitory activity (%): normotensive rats, 1 mg/kg orally, angiotensin I 300 ng/kg i.v.
Protocol: Normotensive rats were anesthetized with urethane (1.2 g/kg, s.c.), and angiotensin I (300 ng/kg) was injected into the jugular vein of the rats. The pressor response to angiotensin I was measured with a pressure transducer connected to the carotid artery. Then, a test compound was administered orally thereto at a dose of 1 mg/kg, and angiotensin I (300 ng/kg) was further injected intravenously at intervals. The ACE-inhibitoryactivity of the test compound was estimated from the pressor responses to angiotensin I which were obtained before and after oral administration of the test compound.

[6] = system: spontaneously hypertensive rats (SHR); assay: Hypotensive activity in SHR; assay type: in vivo, rat; conditions: 3 mg/kg orally; for hypotensive activity, Blood pressure (b): measured after administration of the test compound / hypotensive activity, Blood pressure (a): measured before administration of the test compound / Duration of action: SHR; for hypotensive activity, Blood pressure (b): measured after administration of the test compound / hypotensive activity, Blood pressure (a): measured before administration of the test compound: systolic
Protocol: A test compound suspended in an aqueous carboxymethyl-cellulose solution was administered orally (dose: 3 mg/kg) to spontaneously hypertensive rats (SHR) fasted overnight. The systolic blood pressure of the rats was measured by the tail plethysmographic technique (The Journal of Laboratory and Clinical Medicine 78 (1971), page 957). The hypotensive activity of the test compound was estimated from the decreased level of blood pressure.

CC[C@H](N[C@@H](CCc1ccccc1)C(=O)O)C(=O)N1C(=O)N(Cc2ccccc2)C[C@H]1C(=O)O [Example 17-(2), (4S)-1-benzyl-3-{(2S)-2-[N-((1S)-1-carboxy-3-phenylpropyl)amino]-n-butyryl}-2-oxo-imidazolidine-4-carboxylic acid] gave an IC50 [1] of 2.3 nM.

For CC(C)CC[C@H](N[C@@H](C)C(=O)N1C(=O)N(Cc2ccccc2)C[C@H]1C(=O)O)C(=O)O [Example 13-(2), (4S)-1-benzyl-3-{(2S)-2-[N-((1S)-1-carboxy-4-methyl-n-pentyl)amino]propionyl}-2-oxo-imidazolidine-4-carboxylic acid], the IC50 [1] was 3.3 nM.

C[C@H](N[C@@H](Cc1ccccc1)C(=O)O)C(=O)N1C(=O)N(Cc2ccccc2)C[C@H]1C(=O)O [Example 14-(3), (4S)-1-benzyl-3-{(2S)-2-[N-((1S)-1-carboxy-2-phenylethyl)amino]propionyl}-2-oxo-imidazolidine-4-carboxylic acid] was tested, and the IC50 [1] was 11 nM.

In the case of C[C@H](N[C@@H](CCc1ccccc1)C(=O)O)C(=O)N1C(=O)N(Cc2ccccc2)C[C@H]1C(=O)O [Example 8, (4S)-1-benzyl-3-{(2S)-2-[N-((1S)-1-carboxy-3-phenylpropyl)amino]propionyl}-2-oxo-imidazolidine-4-carboxylic acid], the “mortality (mice died)” value [2] is reported as “no mice died”, the IC50 [1] is reported as 1.7 nM and the “ACE-inhibitory activity (%)” value [3] is reported as 36 ± 8%. For the same molecule, the “ACE-inhibitory activity (%)” value [4] was 33 ± 4%.

For CCOC(=O)[C@H](CCc1ccccc1)N[C@@H](C)C(=O)N1C(=O)N(C)C[C@H]1C(=O)O [Example 1, (4S)-1-methyl-3-{(2S)-2-[N-((1S)-1-ethoxycarbonyl-3-phenylpropyl)amino]propionyl}-2-oxo-imidazolidine-4-carboxylic acid], the “ACE-inhibitory activity (%)” value [5] was 60 ± 6%, the “inhibition of ACE-activity” value ([5]; rats administered angiotensin I intravenously, 1.0 mg/kg) was “about 60%” and the “hypotensive activity, Blood pressure (b): measured after administration of the test compound” value [6] was 136 ± 4 mm Hg. The “hypotensive activity, Blood pressure (a): measured before administration of the test compound” value [6] was 181 ± 3 mm Hg, the Duration of action ([6]; 3 mg/kg) was “more than 6 hours” and the Duration of action ([6]; listed as CH3, CH3, C6 H5 (CH2)2, C2 H5, 3 mg/kg) was over 6 h. The “decrease in blood pressure” value ([6]; spontaneously hypertensive rats) was “about 45 mmHg”.

For CCCCCCCC[C@H](N[C@@H](C)C(=O)N1C(=O)N(Cc2ccccc2)C[C@H]1C(=O)O)C(=O)O [Example 9, (4S)-1-benzyl-3-{(2S)-2-[N-((1S)-1-carboxy-n-nonyl)amino]propionyl}-2-oxo-imidazolidine-4-carboxylic acid], the IC50 [1] was 1.5 nM.

For CC(C)C[C@H](N[C@@H](C)C(=O)N1C(=O)N(Cc2ccccc2)C[C@H]1C(=O)O)C(=O)O [Example 12-(2), (4S)-1-benzyl-3-{(2S)-2-[N-((1S)-1-carboxy-isopentyl)amino]propionyl}-2-oxo-imidazolidine-4-carboxylic acid], the IC50 [1] was 2.1 nM.

Work on CCCCCCCC[C@H](N[C@@H](CC)C(=O)N1C(=O)N(Cc2ccccc2)C[C@H]1C(=O)O)C(=O)O [Example 15-(3), (4S)-1-benzyl-3-{(2S)-2-[N-((1S)-1-carboxy-n-nonyl)amino]-n-butyryl}-2-oxo-imidazolidine-4-carboxylic acid] yielded an IC50 [1] of 1.4 nM.

CCCCCCCC[C@H](N[C@@H](C)C(=O)N1C(=O)N(C)C[C@H]1C(=O)O)C(=O)O [Example 5, (4S)-1-methyl-3-{(2S)-2-[N-((1S)-1-carboxy-n-nonyl)amino]propionyl}-2-oxo-imidazolidine-4-carboxylic acid] was tested, and the “mortality (mice died)” value [2] was “no mice died”, the “ACE-inhibitory activity (%)” value [3] was 36 ± 5% and the “ACE-inhibitory activity (%)” value [4] was 47 ± 4%.

For CCCCCCCC[C@H](N[C@@H](C)C(=O)N1C(=O)N(C)C[C@H]1C(=O)O)C(=O)OCC [Example 3, (4S)-1-methyl-3-{(2S)-2-[N-((1S)-1-ethoxycarbonyl-n-nonyl)amino]propionyl}-2-oxo-imidazolidine-4-carboxylic acid], the “ACE-inhibitory activity (%)” value [5] was 56 ± 7%, the Duration of action [6] was over 6 h and the “hypotensive activity, Blood pressure (b): measured after administration of the test compound” value [6] was 143 ± 4 mm Hg. For the same molecule, the “hypotensive activity, Blood pressure (a): measured before administration of the test compound” value [6] was 174 ± 5 mm Hg.

For C[C@H](N[C@@H](CCc1ccccc1)C(=O)O)C(=O)N1C(=O)N(C)C[C@H]1C(=O)O [Example 4, (4S)-1-methyl-3-{(2S)-2-[N-((1S)-1-carboxy-3-phenylpropyl)amino]propionyl}-2-oxo-imidazolidine-4-carboxylic acid], the “ACE-inhibitory activity (%)” value [3] was 40 ± 6% and the “ACE-inhibitory activity (%)” value [4] was 56 ± 3%.
